{
  "source": "patent US20200392079A1",
  "about": "“Compound, Photopolymerization Initiator Containing Said Compound, and Photosensitive Resin Composition Containing Said Photopolymerization Initiator” (Nippon Kayaku Kabushiki Kaisha, priority 2018, published 2020)",
  "assay": "Solubility evaluation experiment (time required for dissolving in solvent)",
  "format": "physicochemical",
  "experimental": "After the components were mixed in a glass container in accordance with the formulation amounts (parts by mass) listed in Table 1, the solution was placed on a hot plate at 50° C. and stirred with a glass bar. The time (minute) required for dissolving was measured to evaluate the solubility.",
  "key": {"[1]": {"details": "0.50 parts initiator in 1.00 parts (D-1) Cyclopentanon, hot plate 50° C., stirred with glass bar"}, "[2]": {"details": "0.50 parts initiator in (D-2) 1-methoxy-2-propanol (PGME), 1.00 parts (1.43 parts for C-5), 50° C."}, "[3]": {"details": "0.50 parts initiator in (D-3) Polyethylene gylcol monomethylether acetate (PGMEA), 1.00-1.67 parts, 50° C."}, "[4]": {"details": "0.50 parts initiator in (D-4) 3-betoxymethanol, 1.11 parts (>5 parts for C-5), 50° C."}},
  "data": [
    {"smiles": "C=C(C)C(=O)OCCNC(=O)OCC(O)(C(=O)c1ccc(SC)cc1)c1ccc(SC)cc1", "note": "(centres unmarked) [Initiator C-1]", "values": [
      {"measurement": "Stirring time (time required for dissolving)", "setting": "[1]", "value": 10, "unit": "min"},
      {"measurement": "Stirring time (time required for dissolving)", "setting": "[2]", "value": 19, "unit": "min"},
      {"measurement": "Stirring time (time required for dissolving)", "setting": "[3]", "value": 25, "unit": "min"},
      {"measurement": "Stirring time (time required for dissolving)", "setting": "[4]", "value": 40, "unit": "min"}
    ]},
    {"smiles": "C=CC(=O)OCCNC(=O)OCC(O)(C(=O)c1ccc(SC)cc1)c1ccc(SC)cc1", "note": "(centres unmarked) [Initiator C-2]", "values": [
      {"measurement": "Stirring time (time required for dissolving)", "setting": "[1]", "value": 15, "unit": "min"},
      {"measurement": "Stirring time (time required for dissolving)", "setting": "[2]", "value": 12, "unit": "min"},
      {"measurement": "Stirring time (time required for dissolving)", "setting": "[3]", "value": 20, "unit": "min"},
      {"measurement": "Stirring time (time required for dissolving)", "setting": "[4]", "value": 40, "unit": "min"}
    ]}
  ]
}
